Marks after values point to notes of the source that are not given here.
test system: Botrytis cinerea; assay: Example A: in vivo preventive test on Botrytis cinerea (grey mould); conditions: 100 ppm of active ingredient; gherkin plants, preventive spray; evaluated 4 to 5 days after inoculation
Procedure: (§1) The young plants of gherkin are treated by spraying the active ingredient prepared as described above. Control plants are treated only with an aqueous solution of acetone/Dimethyl sulfoxide/Tween®. After 24 hours, the plants are contaminated by spraying the leaves with an aqueous suspension of Botrytis cinerea spores.

Compound	Eff. % [%]
OC(Cc1ccncc1F)(Cn1cncn1)C1(F)CC1 (stereo not shown) [Example I-19]	100
OC(Cc1cccnc1Cl)(Cn1cncn1)C1(F)CC1 (stereo not shown) [Example I-25]	99

same assay, conditions: 500 ppm of active ingredient; gherkin plants, preventive spray; evaluated 4 to 5 days after inoculation

Compound	Eff. % [%]
OC(Cc1c(Cl)cncc1Cl)(Cn1cncn1)C1(F)CC1 (racemic) [Example I-62]	100
CC(C)(F)C(O)(Cc1ccncc1Cl)Cn1cncn1 (racemic) [Example I-76]	100
OC(Cc1ccnc(Cl)c1Cl)(Cn1cncn1)C1(Cl)CC1 (racemic) [Example I-82]	100
OC(Cc1cccc(Cl)n1)(Cn1cncn1)C1(Cl)CC1 (stereo not shown) [Example I-29]	94

test system: Puccinia recondita; assay: Example B: in vivo preventive test on Puccinia recondita (brown rust on wheat); conditions: 100 ppm of active ingredient; wheat plants, preventive spray; evaluated 11 days after inoculation
Procedure: as §1, with “wheat” for “gherkin”, “Puccinia recondita” for “Botrytis cinerea”

Compound	Eff. % [%]
OC(Cc1ccncc1F)(Cn1cncn1)C1(F)CC1 (stereo not shown) [Example I-19]	88
OC(Cc1cccnc1Cl)(Cn1cncn1)C1(F)CC1 (stereo not shown) [Example I-25]	100

same assay, conditions: 500 ppm of active ingredient; wheat plants, preventive spray; evaluated 11 days after inoculation

Compound	Eff. % [%]
OC(Cc1c(Cl)cncc1Cl)(Cn1cncn1)C1(F)CC1 (racemic) [Example I-62]	98
CC(C)(F)C(O)(Cc1ccncc1Cl)Cn1cncn1 (racemic) [Example I-76]	100
OC(Cc1ccnc(Cl)c1Cl)(Cn1cncn1)C1(Cl)CC1 (racemic) [Example I-82]	98
OC(Cc1cccc(Cl)n1)(Cn1cncn1)C1(Cl)CC1 (stereo not shown) [Example I-29]	97

test system: Pyrenophora teres; assay: Example C: in vivo preventive test on Pyrenophora teres (net blotch on barley); conditions: 100 ppm of active ingredient; barley plants, preventive spray; evaluated 14 days after inoculation
Procedure: as §1, with “barley” for “gherkin”, “Pyrenophora teres” for “Botrytis cinerea”

Compound	Eff. % [%]
OC(Cc1ccncc1F)(Cn1cncn1)C1(F)CC1 (stereo not shown) [Example I-19]	75
OC(Cc1cccnc1Cl)(Cn1cncn1)C1(F)CC1 (stereo not shown) [Example I-25]	97

same assay, conditions: 500 ppm of active ingredient; barley plants, preventive spray; evaluated 14 days after inoculation

Compound	Eff. % [%]
OC(Cc1c(Cl)cncc1Cl)(Cn1cncn1)C1(F)CC1 (racemic) [Example I-62]	100
CC(C)(F)C(O)(Cc1ccncc1Cl)Cn1cncn1 (racemic) [Example I-76]	79
OC(Cc1ccnc(Cl)c1Cl)(Cn1cncn1)C1(Cl)CC1 (racemic) [Example I-82]	97
OC(Cc1cccc(Cl)n1)(Cn1cncn1)C1(Cl)CC1 (stereo not shown) [Example I-29]	95

test system: Septoria tritici; assay: Example D: in vivo preventive test on Septoria tritici (leaf spot on wheat); conditions: 100 ppm of active ingredient; wheat plants, preventive spray; evaluated 24 days after inoculation
Procedure: as §1, with “wheat” for “gherkin”, “Septoria tritici” for “Botrytis cinerea”

Compound	Eff. % [%]
OC(Cc1ccncc1F)(Cn1cncn1)C1(F)CC1 (stereo not shown) [Example I-19]	75
OC(Cc1cccnc1Cl)(Cn1cncn1)C1(F)CC1 (stereo not shown) [Example I-25]	100

same assay, conditions: 500 ppm of active ingredient; wheat plants, preventive spray; evaluated 24 days after inoculation

Compound	Eff. % [%]
OC(Cc1c(Cl)cncc1Cl)(Cn1cncn1)C1(F)CC1 (racemic) [Example I-62]	100
CC(C)(F)C(O)(Cc1ccncc1Cl)Cn1cncn1 (racemic) [Example I-76]	100
OC(Cc1ccnc(Cl)c1Cl)(Cn1cncn1)C1(Cl)CC1 (racemic) [Example I-82]	100
OC(Cc1cccc(Cl)n1)(Cn1cncn1)C1(Cl)CC1 (stereo not shown) [Example I-29]	100

test system: Sphaerotheca fuliginea; assay: Example E: in vivo preventive test on Sphaerotheca fuliginea (powdery mildew on cucurbits); conditions: 100 ppm of active ingredient; gherkin plants, preventive spray; evaluated 15 days after inoculation
Procedure: as §1, with “Sphaerotheca fuliginea” for “Botrytis cinerea”

Compound	Eff. % [%]
OC(Cc1ccncc1F)(Cn1cncn1)C1(F)CC1 (stereo not shown) [Example I-19]	100
OC(Cc1cccnc1Cl)(Cn1cncn1)C1(F)CC1 (stereo not shown) [Example I-25]	100

same assay, conditions: 500 ppm of active ingredient; gherkin plants, preventive spray; evaluated 15 days after inoculation

Compound	Eff. % [%]
OC(Cc1c(Cl)cncc1Cl)(Cn1cncn1)C1(F)CC1 (racemic) [Example I-62]	100
CC(C)(F)C(O)(Cc1ccncc1Cl)Cn1cncn1 (racemic) [Example I-76]	100
OC(Cc1ccnc(Cl)c1Cl)(Cn1cncn1)C1(Cl)CC1 (racemic) [Example I-82]	100
OC(Cc1cccc(Cl)n1)(Cn1cncn1)C1(Cl)CC1 (stereo not shown) [Example I-29]	100

test system: Uromyces appendiculatus; assay: Example F: in vivo preventive test on Uromyces appendiculatus (bean rust); conditions: 100 ppm of active ingredient; bean plants, preventive spray; evaluated 11 days after inoculation
Procedure: as §1, with “bean” for “gherkin”, “Uromyces appendiculatus” for “Botrytis cinerea”

Compound	Eff. % [%]
OC(Cc1ccncc1F)(Cn1cncn1)C1(F)CC1 (stereo not shown) [Example I-19]	98
OC(Cc1cccnc1Cl)(Cn1cncn1)C1(F)CC1 (stereo not shown) [Example I-25]	100

same assay, conditions: 500 ppm of active ingredient; bean plants, preventive spray; evaluated 11 days after inoculation

Compound	Eff. % [%]
OC(Cc1c(Cl)cncc1Cl)(Cn1cncn1)C1(F)CC1 (racemic) [Example I-62]	100
CC(C)(F)C(O)(Cc1ccncc1Cl)Cn1cncn1 (racemic) [Example I-76]	100
OC(Cc1ccnc(Cl)c1Cl)(Cn1cncn1)C1(Cl)CC1 (racemic) [Example I-82]	100
OC(Cc1cccc(Cl)n1)(Cn1cncn1)C1(Cl)CC1 (stereo not shown) [Example I-29]	100

test system: Blumeria graminis f. sp. hordei; assay: Example G: Blumeria test (barley)/preventive; assay type: in vivo; conditions: 500 ppm of active ingredient, preventive, evaluated 7 days after inoculation
Procedure: (§2) Solvent: 49 parts by weight of N,N-dimethylacetamide Emulsifier: 1 part by weight of alkylaryl polyglycol ether To produce a suitable preparation of active compound, 1 part by weight of active compound or active compound combination is mixed with the stated amounts of solvent and emulsifier, and the concentrate is diluted with water to the desired concentration. To test for preventive activity, young plants are sprayed with the preparation of active compound or active compound combination at the stated rate of application. After the spray coating has been dried, the plants are dusted with spores of Blumeria graminis f. sp. hordei.

Compound	Eff. % [%]
OC(Cc1c(Cl)cncc1Cl)(Cn1cncn1)C1(F)CC1 (racemic) [Example I-62]	100
CC(C)(F)C(O)(Cc1ccncc1Cl)Cn1cncn1 (racemic) [Example I-76]	100
OC(Cc1ccnc(Cl)c1Cl)(Cn1cncn1)C1(Cl)CC1 (racemic) [Example I-82]	100
OC(Cc1ccncc1F)(Cn1cncn1)C1(F)CC1 (stereo not shown) [Example I-19]	100
OC(Cc1cccnc1Cl)(Cn1cncn1)C1(F)CC1 (stereo not shown) [Example I-25]	100
OC(Cc1cccc(Cl)n1)(Cn1cncn1)C1(Cl)CC1 (stereo not shown) [Example I-29]	100

test system: Fusarium culmorum; assay: Example H: Fusarium culmorum-test (wheat)/curative; assay type: in vivo; conditions: 500 ppm of active ingredient, curative, evaluated 5 days after inoculation
Procedure: (§3) Solvent: 49 parts by weight of N,N-dimethylacetamide
(§4) Emulsifier: 1 part by weight of alkylaryl polyglycol ether
(§5) To produce a suitable preparation of active compound, 1 part by weight of active compound or active compound combination is mixed with the stated amounts of solvent and emulsifier, and the concentrate is diluted with water to the desired concentration.
To test for curative activity, young plants are slightly injured by using a sandblast and afterwards they are sprayed with a conidia suspension of Fusarium culmorum and placed for 24 hours in a greenhouse under a translucent incubation cabinet at a temperature of approximately 22° C. and a relative atmospheric humidity of approximately 100% and are subsequently sprayed with the preparation of active compound at the stated rate of application.
After the spray coating has been dried, the plants remain in the greenhouse under translucent incubation cloches at a temperature of approximately 22° C. and a relative atmospheric humidity of approximately 100%.
(§6) The test is evaluated 5 days after the inoculation. 0% means an efficacy which corresponds to that of the untreated control, while an efficacy of 100% means that no disease is observed.

Compound	Eff. % [%]
OC(Cc1c(Cl)cncc1Cl)(Cn1cncn1)C1(F)CC1 (racemic) [Example I-62]	83
OC(Cc1ccncc1F)(Cn1cncn1)C1(F)CC1 (stereo not shown) [Example I-19]	100
OC(Cc1cccnc1Cl)(Cn1cncn1)C1(F)CC1 (stereo not shown) [Example I-25]	100
OC(Cc1cccc(Cl)n1)(Cn1cncn1)C1(Cl)CC1 (stereo not shown) [Example I-29]	100

test system: Fusarium graminearum; assay: not given; assay type: in vivo; conditions: 500 ppm of active ingredient; barley, preventive; evaluated 5 days after inoculation

Compound	Eff. % [%]
OC(Cc1c(Cl)cncc1Cl)(Cn1cncn1)C1(F)CC1 (racemic) [Example I-62]	100
CC(C)(F)C(O)(Cc1ccncc1Cl)Cn1cncn1 (racemic) [Example I-76]	86
OC(Cc1ccnc(Cl)c1Cl)(Cn1cncn1)C1(Cl)CC1 (racemic) [Example I-82]	100
OC(Cc1ccncc1F)(Cn1cncn1)C1(F)CC1 (stereo not shown) [Example I-19]	100
OC(Cc1cccnc1Cl)(Cn1cncn1)C1(F)CC1 (stereo not shown) [Example I-25]	100
OC(Cc1cccc(Cl)n1)(Cn1cncn1)C1(Cl)CC1 (stereo not shown) [Example I-29]	100

test system: Fusarium nivale (var. majus); assay: Example J: Fusarium nivale (var. majus)-test (wheat)/preventive; assay type: in vivo; conditions: 500 ppm of active ingredient, preventive, evaluated 5 days after inoculation
Procedure: as §3, §4, §5
To test for preventive activity, young plants are sprayed with the preparation of active compound or active compound combination at the stated rate of application.
After the spray coating has been dried, the plants are slightly injured by using a sandblast and afterwards they are sprayed with a conidia suspension of Fusarium nivale (var. majus).
The plants are placed in the greenhouse under a translucent incubation cabinet at a temperature of approximately 10° C. and a relative atmospheric humidity of approximately 100%.
as §6

Compound	Eff. % [%]
OC(Cc1c(Cl)cncc1Cl)(Cn1cncn1)C1(F)CC1 (racemic) [Example I-62]	100
CC(C)(F)C(O)(Cc1ccncc1Cl)Cn1cncn1 (racemic) [Example I-76]	100
OC(Cc1ccnc(Cl)c1Cl)(Cn1cncn1)C1(Cl)CC1 (racemic) [Example I-82]	100
OC(Cc1ccncc1F)(Cn1cncn1)C1(F)CC1 (stereo not shown) [Example I-19]	100
OC(Cc1cccnc1Cl)(Cn1cncn1)C1(F)CC1 (stereo not shown) [Example I-25]	100
OC(Cc1cccc(Cl)n1)(Cn1cncn1)C1(Cl)CC1 (stereo not shown) [Example I-29]	100

test system: Leptosphaeria nodorum; assay: Example K: Leptosphaeria nodorum test (wheat)/preventive; assay type: in vivo; conditions: 500 ppm of active ingredient, preventive, evaluated 8 days after inoculation
Procedure: as §2, with “sprayed” for “dusted”, “a spore suspension” for “spores”, “Leptosphaeria nodorum.” for “Blumeria graminis f. sp. hordei.”

Compound	Eff. % [%]
OC(Cc1c(Cl)cncc1Cl)(Cn1cncn1)C1(F)CC1 (racemic) [Example I-62]	100
OC(Cc1ccnc(Cl)c1Cl)(Cn1cncn1)C1(Cl)CC1 (racemic) [Example I-82]	100
OC(Cc1ccncc1F)(Cn1cncn1)C1(F)CC1 (stereo not shown) [Example I-19]	100
OC(Cc1cccnc1Cl)(Cn1cncn1)C1(F)CC1 (stereo not shown) [Example I-25]	100
OC(Cc1cccc(Cl)n1)(Cn1cncn1)C1(Cl)CC1 (stereo not shown) [Example I-29]	100

test system: Phakopsora pachyrhizi; assay: Example L: Phakopsora test (soybeans)/preventive; assay type: in vivo; conditions: 10 ppm of active ingredient, preventive, evaluated 7 days after inoculation

Compound	Eff. % [%]
OC(Cc1ccncc1F)(Cn1cncn1)C1(F)CC1 (stereo not shown) [Example I-19]	96

same assay, conditions: 100 ppm of active ingredient, preventive, evaluated 7 days after inoculation

Compound	Eff. % [%]
OC(Cc1c(Cl)cncc1Cl)(Cn1cncn1)C1(F)CC1 (racemic) [Example I-62]	99
CC(C)(F)C(O)(Cc1ccncc1Cl)Cn1cncn1 (racemic) [Example I-76]	100
OC(Cc1ccnc(Cl)c1Cl)(Cn1cncn1)C1(Cl)CC1 (racemic) [Example I-82]	100
OC(Cc1cccnc1Cl)(Cn1cncn1)C1(F)CC1 (stereo not shown) [Example I-25]	99

test system: Pyricularia oryzae; assay: not given; assay type: in vivo; conditions: 500 ppm of active ingredient; rice, preventive; evaluated 8 days after inoculation

Compound	Eff. % [%]
CC(C)(F)C(O)(Cc1ccncc1Cl)Cn1cncn1 (racemic) [Example I-76]	71
OC(Cc1ccnc(Cl)c1Cl)(Cn1cncn1)C1(Cl)CC1 (racemic) [Example I-82]	100
OC(Cc1ccncc1F)(Cn1cncn1)C1(F)CC1 (stereo not shown) [Example I-19]	100
OC(Cc1cccc(Cl)n1)(Cn1cncn1)C1(Cl)CC1 (stereo not shown) [Example I-29]	70

test system: Venturia inaequalis; assay: Example O: Venturia test (apples)/preventive; assay type: in vivo; conditions: 100 ppm of active ingredient, preventive, evaluated 10 days after inoculation
Procedure: Solvent: 24.5 parts by weight of acetone • 24.5 parts by weight of dimethylacetamide Emulsifier: 1 part by weight of alkylaryl polyglycol ether To produce a suitable preparation of active compound, 1 part by weight of active compound is mixed with the stated amounts of solvent and emulsifier, and the concentrate is diluted with water to the desired concentration. To test for preventive activity, young plants are sprayed with the preparation of active compound at the stated rate of application.

Compound	Eff. % [%]
OC(Cc1c(Cl)cncc1Cl)(Cn1cncn1)C1(F)CC1 (racemic) [Example I-62]	100
CC(C)(F)C(O)(Cc1ccncc1Cl)Cn1cncn1 (racemic) [Example I-76]	74
OC(Cc1ccnc(Cl)c1Cl)(Cn1cncn1)C1(Cl)CC1 (racemic) [Example I-82]	95
OC(Cc1cccnc1Cl)(Cn1cncn1)C1(F)CC1 (stereo not shown) [Example I-25]	89

test system: not given; assay: not given; conditions: pH 2.7

Compound	LogP
OC(Cc1c(Cl)cncc1Cl)(Cn1cncn1)C1(F)CC1 (racemic) [Example I-62]	1.86^[a]
CC(C)(F)C(O)(Cc1ccncc1Cl)Cn1cncn1 (racemic) [Example I-76]	1.20^[a]
OC(Cc1ccnc(Cl)c1Cl)(Cn1cncn1)C1(Cl)CC1 (racemic) [Example I-82]	2.39^[a]
OC(Cc1ccncc1F)(Cn1cncn1)C1(F)CC1 (stereo not shown) [Example I-19]	0.91^[a]
OC(Cc1cccnc1Cl)(Cn1cncn1)C1(F)CC1 (stereo not shown) [Example I-25]	1.42^[a]
OC(Cc1cccc(Cl)n1)(Cn1cncn1)C1(Cl)CC1 (stereo not shown) [Example I-29]	2.18^[a]
